Data published in publication PMC6736568, “Discovery of Novel Anti-cryptosporidial Activities From Natural Products by in vitro High-Throughput Phenotypic Screening” (Frontiers in Microbiology, 2019).
Structures can show the parent of a compound that is named as a salt. Where two headings read alike, the source gives them in different places.

Assays:
[1] = in vitro
[2] = system: Cryptosporidium parvum; assay: qRT-PCR assay of the growth of C. parvum in vitro in HCT-8 host cells (primary and secondary screening, EC50); assay type: cell-based; conditions: Cryptosporidium parvum, HCT-8; for inhibition at 3.3 µM: secondary screening at 3.3 uM, read-out: % Inhibition (3.3 uM)
[3] = system: HCT-8 host cells (Hs18S)
[4] = primary screening at 10 uM, read-out: Inhibition (%)
[5] = primary screening at 10 uM, treated vs control

| SMILES | cytotoxicity at 41 h, 10 µM ([1]; human) [%] | inhibition at 10 µM [2, 4] [%] | Hs18S ΔCT ([3]; human, 41 h, 10 μM) | cytotoxicity at 10 µM [1] [%] | Hs18S ΔCT [3, 5] | also measured |
| --- | --- | --- | --- | --- | --- | --- |
| Cc1cc(O)c(C=O)c2c1C(=O)Oc1c(COC(=O)/C=C/C(=O)O)c(O)c(C(=O)O)c(C)c1O2 [FUMARPROTOCETRARIC ACID] | 6.9 | -5.48 | 0.10 | – | – | – |
| O=C(O)C1CC([C@@H]2CCCCN2)CN2CCCCC12 (stereo partly drawn) [APHYLLIC ACID] | 16.1 | -28.5 | 0.25 | – | – | – |
| CNC[C@H](O)c1ccc(O)c(O)c1 [EPINEPHRINE BITARTRATE] | – | – | – | 2.6 | – | inhibition at 10 µM [2]: -27.1%; Hs18S ΔCT [3]: 0.04 |
| COc1ccc2c(c1)O[C@@H]1COc3cc(OC)c(OC)cc3[C@@H]1C2=O [MUNDOSERONE] | – | 13.7 | – | 11.4 | 0.17 | – |
| C=C[C@H]1C[N@@]2CC[C@H]1C[C@@H]2[C@@H](O)c1ccnc2ccccc12 [CINCHONINE] | – | -10.5 | – | – | 0.01 | cytotoxicity at 41 h, 10 µM [1]: 0.4% |
| COC1=CC(=O)C[C@@H](C)[C@]12Oc1c(Cl)c(OC)cc(OC)c1C2=O [GRISEOFULVIN] | 18.7 | 66 | 0.30 | – | – | inhibition at 3.3 µM [2]: 9% |
| CC(=O)Oc1cc(OC(C)=O)c2c(c1)O[C@H](c1ccc(OC(C)=O)c(OC(C)=O)c1)[C@H](OC(C)=O)C2 [EPICATECHIN PENTAACETATE] | – | -52.5 | – | -1.3 | -0.02 | – |
| Oc1ccc(/C=C/c2cc(O)cc(O)c2)cc1 [RESVERATROL] | -9.6 | 93.5 | – | – | -0.13 | inhibition at 3.3 µM [2]: -24% |
| Cc1cc(=O)oc2c(O)c(O)ccc12 [4-METHYLDAPHNETIN] | -16.6 | -23.7 | -0.22 | – | – | – |
| NC[C@H]1O[C@H](O[C@H]2[C@H](O)[C@@H](O[C@H]3O[C@H](CO)[C@@H](O)[C@H](N)[C@H]3O)[C@H](N)C[C@@H]2N)[C@H](N)[C@@H](O)[C@@H]1O [BEKANAMYCIN SULFATE] | 8.7 | 4.16 | 0.13 | – | – | – |
| CNC(=O)Oc1ccc2c(c1)[C@]1(C)CCN(C)[C@@H]1N2C [PHYSOSTIGMINE SALICYLATE] | – | -4.89 | – | -8.6 | -0.12 | – |
| Oc1cc(O)c2c(c1)O[C@H](c1ccc(O)c(O)c1)[C@@H](O)C2 [CIANIDANOL] | -14.9 | 2 | -0.20 | – | – | – |
| COc1ccc2c(c1)OC/C(=C\c1ccc(OC)c(O)c1)C2=O [SAPPANONE A DIMETHYL ETHER] | 11.8 | 11.1 | 0.18 | – | – | – |
| COc1cc2ccc(=O)oc2c2ccoc12 [SPHONDIN] | – | -5.49 | – | 20.1 | 0.32 | – |
| NCCCCNCCCN [SPERMIDINE TRIHYDROCHLORIDE] | -54.4 | 23.9 | -0.63 | – | – | – |
| CC1/C(=N/O)C[C@@H]2C[C@H]1C2(C)C (stereo partly drawn) [3-PINANONE OXIME] | 1.5 | -6.18 | 0.02 | – | – | – |
| C[C@@H](CO)NC(=O)[C@@H]1C=C2c3cccc4[nH]cc(c34)C[C@H]2N(C)C1 [ERGONOVINE MALEATE] | – | 2.56 | – | 14.5 | 0.23 | – |
| COc1c(OC)c2occc2c2oc(=O)ccc12 [PIMPINELLIN] | 13.3 | 43.6 | 0.21 | – | – | – |
| C[C@]12CC[C@@H]3c4ccc(O)cc4CC[C@H]3[C@@H]1C[C@@H](O)[C@@H]2O [ESTRIOL] | -8.4 | 14.4 | -0.12 | – | – | – |
| NC(=O)NCCC[C@H](N)C(=O)O [CITRULLINE] | – | -44.7 | – | 34.9 | 0.62 | – |
| COc1ccc(-c2coc3cc(O)ccc3c2=O)cc1 [FORMONONETIN] | -53.6 | 13.2 | -0.62 | – | – | – |
| C=CCN1CC[C@]23c4c5ccc(O)c4O[C@H]2C(=O)CC[C@@]3(O)[C@H]1C5 [NALOXONE HYDROCHLORIDE] | – | 21.9 | – | 12.7 | 0.20 | – |
| NCCC(=O)N[C@@H](Cc1cnc[nH]1)C(=O)O [CARNOSINE] | 5.5 | 41.1 | 0.08 | – | – | – |
| CCOC(=O)C1C(C=C(C)C)C1(C)C (stereo not drawn) [CHRYSANTHEMIC ACID, ETHYL ESTER] | – | 24.6 | – | – | -0.97 | cytotoxicity at 41 h, 10 µM [1]: -95.7%; inhibition at 3.3 µM [2]: 91% |
| COc1ccc(C(=O)CC(=O)O)c2c1C=CC(C)(C)O2 [URSINOIC ACID] | -37.5 | 14.2 | -0.46 | – | – | – |
